Results reported in the supplement of paper PMC4862054.

Legend:
Conditions in all cases: incubation time: 72 h
[1] = system: CAL-120; assay: normalised viability (% of control), CellTiter-Blue; higher = more viable cells (about 100 = DMSO control)
Experimental: (§1)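 DSRT, CellTiter-Blue viability, 72 h incubation. Signal is normalised to DMSO and benzethonium chloride controls. Value is the normalised response at dose 3.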

[2] = system: MDA-MB-231; assay: as above
Experimental: as §1

[3] = system: DU-4475; assay: as above
Experimental: as §1

[4] = system: HCC1143; assay: as above
Experimental: as §1

[5] = system: CAL-148; assay: as above
Experimental: as §1

[6] = system: CAL-85-1; assay: as above
Experimental: as §1

[7] = system: MDA-MB-453; assay: as above
Experimental: as §1

[8] = system: HDQ-P1; assay: as above
Experimental: as §1

[9] = system: Hs578T; assay: as above
Experimental: as §1

[10] = system: BT-549; assay: as above
Experimental: as §1

[11] = system: MDA-MB-468; assay: as above
Experimental: as §1

[12] = system: MDA-MB-436; assay: as above
Experimental: as §1

[13] = system: HCC1937; assay: as above
Experimental: as §1

[14] = system: CAL-51; assay: as above
Experimental: as §1

[15] = system: SK-BR-3; assay: as above
Experimental: as §1

[16] = system: HCC1599; assay: as above
Experimental: as §1

[17] = system: BT-474; assay: as above
Experimental: as §1

[18] = system: MFM-223; assay: as above
Experimental: as §1

[19] = system: CAL-120; assay: drug sensitivity score (DSS), CellTox Green (DSS (AUC-based score)); higher = stronger drug effect (viability inhibition or cytotoxicity); extreme values may be limits of the assay
Outline: (§2)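 The area under the fitted dose-response curve was used to calculate the drug sensitivity score. Cells from breast cancer lines were incubated for 72 h in 384-well plates with compound at 5 concentrations spaced 10-fold over a 10,000-fold range specific to each compound. Plates were read for CellTox Green and then CellTiter-Glo, and normalised to 0.1 % DMSO and a positive kill control.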

[20] = system: MDA-MB-231; assay: as above
Outline: as §2

[21] = system: HCC1143; assay: as above
Outline: as §2

[22] = system: CAL-148; assay: as above
Outline: as §2

[23] = system: CAL-85-1; assay: as above
Outline: as §2

[24] = system: MDA-MB-453; assay: as above
Outline: as §2

COc1cc2c(Oc3ccc(NC(=O)C4(C(=O)Nc5ccc(F)cc5)CC4)cc3F)ccnc2cc1OCCCN1CCOCC1 [Foretinib]
normalised viability ([1]; 10 nM): 89% | normalised viability ([2]; 10 nM): 95.1% | normalised viability ([3]; 1 nM): 96.6% | normalised viability ([4]; 10 nM): 99.9% | normalised viability ([5]; 1 nM): 108% | normalised viability ([6]; 1 nM): 100% | normalised viability ([7]; 1 nM): 91.6% | normalised viability ([8]; 1 nM): 92.4% | normalised viability ([9]; 10 nM): 97.5% | normalised viability ([10]; 10 nM): 107% | normalised viability ([11]; 10 nM): 134% | normalised viability ([12]; 10 nM): 91.8% | normalised viability ([13]; 10 nM): 97.7% | normalised viability ([14]; 1 nM): 93.2% | normalised viability ([15]; 10 nM): 78.8% | normalised viability ([16]; 10 nM): 95.3% | normalised viability ([17]; 10 nM): 109% | normalised viability ([18]; 10 nM): 80% | drug sensitivity score [19]: 0 | drug sensitivity score [20]: 10.4 | drug sensitivity score [21]: 1.04 | drug sensitivity score [22]: 1.71 | drug sensitivity score [23]: 0 | drug sensitivity score [24]: 0

NC(=O)NO [Hydroxyurea]
normalised viability ([1]; 1000 nM): 103% | normalised viability ([2]; 1000 nM): 98.2% | normalised viability ([3]; 100 nM): 119% | normalised viability ([4]; 1000 nM): 106% | normalised viability ([5]; 100 nM): 96.8% | normalised viability ([6]; 100 nM): 100% | normalised viability ([7]; 100 nM): 101% | normalised viability ([8]; 100 nM): 108% | normalised viability ([9]; 1000 nM): 98.2% | normalised viability ([10]; 1000 nM): 103% | normalised viability ([11]; 1000 nM): 109% | normalised viability ([12]; 1000 nM): 106% | normalised viability ([13]; 1000 nM): 91.4% | normalised viability ([14]; 100 nM): 111% | normalised viability ([15]; 1000 nM): 101% | normalised viability ([16]; 1000 nM): 117% | normalised viability ([17]; 1000 nM): 115% | normalised viability ([18]; 1000 nM): 96.9% | drug sensitivity score [19]: 0 | drug sensitivity score [20]: 0 | drug sensitivity score [21]: 0 | drug sensitivity score [22]: 0 | drug sensitivity score [23]: 0 | drug sensitivity score [24]: 0

NC1(c2ccc(-c3nc4ccn5c(=O)[nH]nc5c4cc3-c3ccccc3)cc2)CCC1 [MK-2206]
normalised viability ([1]; 10 nM): 106% | normalised viability ([2]; 10 nM): 104% | normalised viability ([3]; 1 nM): 107% | normalised viability ([4]; 10 nM): 121% | normalised viability ([5]; 1 nM): 105% | normalised viability ([6]; 1 nM): 92.2% | normalised viability ([7]; 1 nM): 117% | normalised viability ([8]; 1 nM): 103% | normalised viability ([9]; 10 nM): 98.5% | normalised viability ([10]; 10 nM): 107% | normalised viability ([11]; 10 nM): 109% | normalised viability ([12]; 10 nM): 107% | normalised viability ([13]; 10 nM): 80.7% | normalised viability ([14]; 1 nM): 100% | normalised viability ([15]; 10 nM): 79% | normalised viability ([16]; 10 nM): 97.4% | normalised viability ([17]; 10 nM): 112% | normalised viability ([18]; 10 nM): 105% | drug sensitivity score [19]: 0 | drug sensitivity score [20]: 0 | drug sensitivity score [21]: 0 | drug sensitivity score [22]: 3.64 | drug sensitivity score [23]: 0 | drug sensitivity score [24]: 0

NC(=O)c1cccc2cn(-c3ccc([C@@H]4CCCNC4)cc3)nc12 [MK-4827]
normalised viability ([1]; 100 nM): 87.3% | normalised viability ([2]; 100 nM): 97.5% | normalised viability ([3]; 10 nM): 90.9% | normalised viability ([4]; 100 nM): 87.2% | normalised viability ([5]; 10 nM): 98.5% | normalised viability ([6]; 10 nM): 101% | normalised viability ([7]; 10 nM): 91.1% | normalised viability ([8]; 10 nM): 105% | normalised viability ([9]; 100 nM): 92.1% | normalised viability ([10]; 100 nM): 97.1% | normalised viability ([11]; 100 nM): 95% | normalised viability ([12]; 100 nM): 95.1% | normalised viability ([13]; 100 nM): 72.9% | normalised viability ([14]; 10 nM): 110% | normalised viability ([15]; 100 nM): 78% | normalised viability ([16]; 100 nM): 93.8% | normalised viability ([17]; 100 nM): 104% | normalised viability ([18]; 100 nM): 90.6% | drug sensitivity score [19]: 0 | drug sensitivity score [20]: 0 | drug sensitivity score [21]: 0 | drug sensitivity score [22]: 0 | drug sensitivity score [23]: 2.02 | drug sensitivity score [24]: 0

N[C@@H](Cc1ccc(N(CCCl)CCCl)cc1)C(=O)O [Melphalan]
normalised viability ([1]; 9.9 nM): 73.6% | normalised viability ([2]; 9.9 nM): 99.8% | normalised viability ([3]; 0.99 nM): 105% | normalised viability ([4]; 9.9 nM): 74.2% | normalised viability ([5]; 0.99 nM): 92.4% | normalised viability ([6]; 0.99 nM): 87.5% | normalised viability ([7]; 0.99 nM): 108% | normalised viability ([8]; 0.99 nM): 97.6% | normalised viability ([9]; 9.9 nM): 75.8% | normalised viability ([10]; 9.9 nM): 110% | normalised viability ([11]; 9.9 nM): 108% | normalised viability ([12]; 9.9 nM): 87.2% | normalised viability ([13]; 9.9 nM): 102% | normalised viability ([14]; 0.99 nM): 104% | normalised viability ([15]; 9.9 nM): 86.9% | normalised viability ([16]; 9.9 nM): 96.1% | normalised viability ([17]; 9.9 nM): 99.3% | normalised viability ([18]; 9.9 nM): 89.9% | drug sensitivity score [19]: 9.72 | drug sensitivity score [20]: 23.9 | drug sensitivity score [21]: 7.18 | drug sensitivity score [22]: 18.5 | drug sensitivity score [23]: 18.1 | drug sensitivity score [24]: 16.9

O=C(c1cc(Cc2n[nH]c(=O)c3ccccc23)ccc1F)N1CCN(C(=O)C2CC2)CC1 [Olaparib]
normalised viability ([1]; 100 nM): 76.2% | normalised viability ([2]; 100 nM): 76.5% | normalised viability ([3]; 10 nM): 97.5% | normalised viability ([4]; 100 nM): 88.2% | normalised viability ([5]; 10 nM): 83.3% | normalised viability ([6]; 10 nM): 88.1% | normalised viability ([7]; 10 nM): 97.8% | normalised viability ([8]; 10 nM): 99.4% | normalised viability ([9]; 100 nM): 80.9% | normalised viability ([10]; 100 nM): 102% | normalised viability ([11]; 100 nM): 99.8% | normalised viability ([12]; 100 nM): 107% | normalised viability ([13]; 100 nM): 77.9% | normalised viability ([14]; 10 nM): 101% | normalised viability ([15]; 100 nM): 81.2% | normalised viability ([16]; 100 nM): 114% | normalised viability ([17]; 100 nM): 105% | normalised viability ([18]; 100 nM): 103% | drug sensitivity score [19]: 0 | drug sensitivity score [20]: 1.54 | drug sensitivity score [21]: 0 | drug sensitivity score [22]: 0 | drug sensitivity score [23]: 0 | drug sensitivity score [24]: 0
